Laboratory results published in US20240287066A1, “Crystalline Form of Sotorasib” (Sandoz AG, priority 2021, published 2024).
Where two headings read alike, the source gives them in different places. Blank lines part the entries; values can stand above or below the molecule they belong to.

Legend:
[1] = cited from earlier work; for Mass increase from 0-90% RH at 25° C.: GMS, data from paragraph [0334] on page 46 of WO 2020/236947 A1; for hygroscopic behaviour (in words): GMS data of WO 2020/236947 A1, 0-90% RH, 25° C.
[2] = Powder dissolution in acetate buffer pH 4.5 and phosphate buffer pH 6.8; format: physicochemical; details: for phase change by PXRD during the dissolution experiments: acetate buffer pH 4.5 and phosphate buffer pH 6.8, 37° C., up to 24 hours; for solubility compared to crystalline Form I (in words): 15 minutes to 24 hours
Description: Powder dissolution experiments were carried out at a temperature of 37° C. in acetate buffer pH 4.5 and phosphate buffer pH 6.8 for the crystalline Form I of sotorasib disclosed in WO 2020/236947 A1 and the crystalline Form A of sotorasib of the present invention. Particle sizes of both forms were kept as similar as possible to allow for proper comparison. The respective concentrations were determined at a wavelength of 293 nm in case of the acetate buffer and at 354 nm in case of the phosphate buffer.

[3] = Gravimetric moisture sorption (GMS) of sotorasib Form A; format: physicochemical
Description: Gravimetric moisture sorption was performed with an SPSx-1μ moisture sorption analyzer (ProUmid, Ulm). The measurement cycle was started at ambient relative humidity (RH) of 40%. RH was then decreased to 5% in 5% steps, followed by a further decrease to 3% and to 0%. […] Finally, RH was increased to ambient relative humidity of 40% in 5% steps. The time per step was set to a minimum of 2 hours and a maximum of 6 hours. If an equilibrium condition with a constant mass of ±0.01% within 1 hour was reached before the maximum time for all examined samples the sequential humidity step was applied before the maximum time of 6 hours. If no equilibrium was achieved the consecutive humidity step was applied after the maximum time of 6 hours. The temperature was (25±0.1)° C.

[4] = Stress stability (temperature and humidity stress, PXRD read-out); format: physicochemical; details: for solid form by PXRD after stress storage: 30 weeks, open stored in glass vials
Excerpt: Sotorasib Form A of the present invention was subjected to various temperature and humidity stress conditions for 30 weeks as outlined in Table 3 below. The samples were open stored in glass vials.

phase change by PXRD during the dissolution experiments [2]: no phase changes occurred
SMILES: C=CC(=O)N1CCN(c2nc(=O)n(-c3c(C)ccnc3C(C)C)c3nc(-c4c(O)cccc4F)c(F)cc23)[C@@H](C)C1 [Form I of WO 2020/236947 A1, 6-fluoro-7-(2-fluoro-6-hydroxyphenyl)-1-(4-methyl-2-(2-propanyl)-3-pyridinyl)-4-((2S)-2-methyl-4-(2-propenoyl)-1-piperazinyl)pyrido[2,3-d]pyrimidin-2(1H)-one]
Mass increase from 0-90% RH at 25° C. [1]: +0.5-1.0% ^ | Mass increase from 0-90% RH at 25° C. ([1]; listed as Form I): 0.5-1.0%

SMILES: C=CC(=O)N1CCN(c2nc(=O)n(-c3c(C)ccnc3C(C)C)c3nc(-c4c(O)cccc4F)c(F)cc23)[C@@H](C)C1 [Form III of WO 2020/236947 A1, 6-fluoro-7-(2-fluoro-6-hydroxyphenyl)-1-(4-methyl-2-(2-propanyl)-3-pyridinyl)-4-((2S)-2-methyl-4-(2-propenoyl)-1-piperazinyl)pyrido[2,3-d]pyrimidin-2(1H)-one]
hygroscopic behaviour (in words) [1]: hygroscopic | Mass increase from 0-90% RH at 25° C. [1]: +7.0%

hygroscopic behaviour (in words) ([3]; GMS, 0-90% RH, 25° C.): slightly hygroscopic | mass difference in the sorption cycle between 0 and 90% RH ([3]; GMS, 0-90% RH, (25±0.1)° C.): about 0.4 w-% | Mass increase from 0-90% RH at 25° C. ([3]; GMS, data from FIG. 4 of present invention): +0.4% | PXRD of the sample after the GMS experiment ([3]; after sorption/desorption cycle 0-90% RH, 25° C.): same PXRD | solid form by PXRD after stress storage ([4]; 25° C./60% RH): Form A | solid form by PXRD after stress storage ([4]; 30° C./65% RH): Form A | solid form by PXRD after stress storage ([4]; 40° C./75% RH): Form A | solid form by PXRD after stress storage ([4]; RT/0% RH): Form A | solid form by PXRD after stress storage ([4]; RT/97% RH): Form A | phase change by PXRD at any stress condition ([4]; all temperature and humidity stress conditions of Table 3, 30 weeks): no phase change occurred | solubility compared to crystalline Form I (in words) ([2]; acetate buffer pH 4.5, 37° C., FIG. 5): significantly increased solubility | equilibrium solubility after 24 hours compared to crystalline Form I ([2]; acetate buffer pH 4.5, 37° C.): about 3 fold | phase change by PXRD during the dissolution experiments [2]: no phase changes occurred | solubility compared to crystalline Form I (in words) ([2]; phosphate buffer pH 6.8, 37° C., FIG. 6): significantly increased solubility | equilibrium solubility after 24 hours compared to crystalline Form I ([2]; phosphate buffer pH 6.8, 37° C.): about 2 fold
SMILES: C=CC(=O)N1CCN(c2nc(=O)n(-c3c(C)ccnc3C(C)C)c3nc(-c4c(O)cccc4F)c(F)cc23)[C@@H](C)C1 [Sotorasib Form A, 6-fluoro-7-(2-fluoro-6-hydroxyphenyl)-1-(4-methyl-2-(2-propanyl)-3-pyridinyl)-4-((2S)-2-methyl-4-(2-propenoyl)-1-piperazinyl)pyrido[2,3-d]pyrimidin-2(1H)-one]

SMILES: C=CC(=O)N1CCN(c2nc(=O)n(-c3c(C)ccnc3C(C)C)c3nc(-c4c(O)cccc4F)c(F)cc23)[C@@H](C)C1 [Form II of WO 2020/236947 A1, 6-fluoro-7-(2-fluoro-6-hydroxyphenyl)-1-(4-methyl-2-(2-propanyl)-3-pyridinyl)-4-((2S)-2-methyl-4-(2-propenoyl)-1-piperazinyl)pyrido[2,3-d]pyrimidin-2(1H)-one]
hygroscopic behaviour (in words) [1]: hygroscopic | Mass increase from 0-90% RH at 25° C. [1]: +2-2.5%^
